# From patent US20240197711A1, “Combination Therapy for Cancer Treatment” (THE REGENTS OF THE UNIVERSITY OF MICHIGAN, priority 2021, published 2024)
# Entries after “also recorded” stand apart in the source; their conditions may differ.
# Assays:
# [1] = tested on: UMSCC74B KRAS G12D head and neck squamous cell carcinoma tumor; experiment: UMSCC74B xenograft, Compound A with or without radiation, tumor volume; assay type: in vivo, mice; details: mt-KRAS UMSCC74B; 30 mg/kg biw for 2 weeks oral; 2 GY/day five days a week for 3 weeks
# EGFR = biological target: T1, EGFR (Homo sapiens, UniProt P00533); experiment: Loss/depletion of EGFR from treated tumor cells; assay type: cell-based
# T1 construct: they all coexpress wild-type (wt)—EGFR along with the KRAS or BRAF oncogene; endogenous in cells
# T1 sequence (P00533 25-1210): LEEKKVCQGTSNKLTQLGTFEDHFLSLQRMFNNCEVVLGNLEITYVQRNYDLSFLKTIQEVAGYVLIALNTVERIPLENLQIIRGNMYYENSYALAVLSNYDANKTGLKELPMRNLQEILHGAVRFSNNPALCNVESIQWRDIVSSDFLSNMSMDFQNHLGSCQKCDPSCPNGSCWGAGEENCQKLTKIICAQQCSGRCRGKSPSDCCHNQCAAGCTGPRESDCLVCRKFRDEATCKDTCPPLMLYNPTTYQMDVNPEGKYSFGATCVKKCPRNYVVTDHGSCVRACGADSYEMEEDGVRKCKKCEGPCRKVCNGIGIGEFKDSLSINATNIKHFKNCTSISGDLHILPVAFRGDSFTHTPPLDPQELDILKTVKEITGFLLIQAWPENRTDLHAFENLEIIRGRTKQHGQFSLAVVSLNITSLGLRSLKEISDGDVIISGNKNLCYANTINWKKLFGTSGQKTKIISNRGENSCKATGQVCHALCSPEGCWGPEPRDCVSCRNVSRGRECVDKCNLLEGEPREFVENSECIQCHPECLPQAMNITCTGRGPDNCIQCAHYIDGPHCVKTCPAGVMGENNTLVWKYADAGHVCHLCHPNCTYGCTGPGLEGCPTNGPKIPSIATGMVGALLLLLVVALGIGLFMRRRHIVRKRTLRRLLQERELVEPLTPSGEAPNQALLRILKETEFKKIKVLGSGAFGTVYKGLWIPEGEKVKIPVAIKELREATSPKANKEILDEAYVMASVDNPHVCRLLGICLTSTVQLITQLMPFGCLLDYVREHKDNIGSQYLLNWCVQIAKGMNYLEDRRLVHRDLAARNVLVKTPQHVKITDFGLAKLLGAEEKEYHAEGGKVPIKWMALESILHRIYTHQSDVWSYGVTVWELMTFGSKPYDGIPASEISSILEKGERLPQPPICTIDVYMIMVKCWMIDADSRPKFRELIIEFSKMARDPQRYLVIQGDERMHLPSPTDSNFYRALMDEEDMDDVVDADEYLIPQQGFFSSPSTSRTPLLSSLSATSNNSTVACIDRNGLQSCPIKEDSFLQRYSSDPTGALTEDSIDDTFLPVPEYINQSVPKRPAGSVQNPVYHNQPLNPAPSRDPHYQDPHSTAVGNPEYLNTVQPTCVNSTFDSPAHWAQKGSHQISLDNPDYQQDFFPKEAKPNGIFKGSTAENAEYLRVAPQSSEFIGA
# From the text: However, binding of ODDERs to EGFR prevents activated EGFR from forming the stable molecular complexes required to protect them from being rapidly internalized and degraded by the normal cellular protein degradation mechanisms, which is exactly what these molecules were designed to do. […] The kinase catalytic domain then unbinds both the product, a tyrosyl phosphate monoester, and the byproduct ADP, and can then bind further ATP and substrate as the catalytic cycle continues. There appear to be two major uses for tyrosine phosphorylation in a substrate molecule. The first is that conformational changes in the substrate protein are often driven by the conversion of a neutral, somewhat hydrophobic, tyrosine side chain into a highly hydrophilic phosphotyrosine, with two negative charges at physiological pH. The second is that there are binding sites on many proteins for phosphotyrosine residues, which induce new protein-protein interactions for the substrate protein, frequently changing its cellular localization and/or allowing it to assemble into new multiprotein complexes, both of which can lead the substrate protein to show very different activities after phosphorylation. […] This recruits the intermediate proteins which lead to the activation of the before mentioned signaling cascades. […]
# [2] = tested on: cells driven by mt-KRAS, mt-BRAF, and mt-EGFR; experiment: Oxidative stress in cells, hydrogen peroxide levels as marker; assay type: cell-based; details: six hours post treatment
# From the text: Signs of oxidative stress in cells were investigated after addition of increasing amounts of Compound A with hydrogen peroxide levels being chosen as a marker of increased oxidative stress. […] Consideration was given to ways of exploiting oxidative stress in these tumor types. Oxidative stress both contributes towards causing DNA damage, and makes DNA damage more difficult to repair. So a combination of an ODDER (e.g., Compound A) with a DNA damaging agent, such as radiation, may result in useful therapeutic regimen. Compound A and radiation was examined in vivo xenograft experiments in mt-EGFR, mt-KRAS, and mt-BRAF driven tumors. […] Thus, it is believed that ODDER compounds, such as Compound A, can be used in combination with radiation to treat localized tumors which express either mutant KRAS or mutant BRAF. […] Other ODDER compounds are also expected to have similar lower on target toxicity.
# [3] = On target toxicity compared with EGFR inhibitors
# SGLT1 = experiment: Loss of EGFR-chaperoned transporter SGLT1 from cells; assay type: cell-based; details: along with EGFR
# From the text: (§1) It was reasoned that the activity seen in these susceptible tumor lines was largely due to EGFR KIFs. Tumors cells are always metabolically stressed, and in actual tumors poor circulation makes the stress even more severe on the tumor interior, which is usually hypoxic once the tumor has growth to more than 100 mm^3. […] As tumor cells try to run in […] glycolysis, they have a much larger glucose requirement than normal cells, and any hindrance of glucose import would be expected to stress cells, pushing them away from aerobic glycolysis, and towards oxidative phosphorylation to produce ATP, which in turn would almost certainly increase production of reactive oxygen intermediates (ROI) in these already abnormally metabolizing cells. The most common ways of disposing of ROI are via conjugation with glutathione, or reaction with various reducing enzymes, most of which rely on cysteine thiols for their RedOx ability. Both of these mechanisms require stressed cells to be able to import large amounts of cysteine, much of which is produced by the liver and put into circulation, as the high demand totally overwhelms endogenous cysteine biosynthesis (which requires methionine as its source of sulfur). […]
# [4] = tested on: tumors driven by mt-KRAS or mt-BRAF; experiment: NC160 Tumor Cell panel; assay type: cell-based; details: several tumors driven by mt-KRAS or mt-BRAF
# xCT = experiment: Loss of EGFR-chaperoned transporter xCT from cells; assay type: cell-based; details: along with EGFR
# From the text: as §1
# [5] = tested on: osimertinib-resistant PC9 non-small cell lung cancer xenografts; experiment: PC9 xenograft, Compound A with or without radiation, tumor volume; assay type: in vivo, mice
# Method: (§2) Mice bearing locally advanced xenograft (PC9, RKO, or UMSCC74B) were treated with vehicle (control); daily oral gavage of Compound A (also referred to as DPI-503), radiation plus vehicle, or a combination of daily oral gavage of Compound A and radiation. Tumor volumes were measured using calipers at least three times a week.
# [6] = tested on: RKO BRAF V600E colorectal cancer tumors; experiment: RKO xenograft, Compound A with or without radiation, tumor volume; assay type: in vivo, mice; details: mt-BRAF RKO, 100 mg/kg daily oral, 2 GY/day five days a week for 3 weeks
# Method: as §2
smiles,measurement,setting,value
CN1CCC2(CC1)N=C(SCC(=O)Nc1cnc3ccccc3c1)C(c1ccc(Br)cc1)=N2 [Compound A],anti-tumor effect of Compound A combined with radiation (tumor volume),[1],unexpectedly exhibited efficacy; also recorded: strongly increased
same,loss of EGFR from the cell surface,EGFR,loss of EGFR from the cell surface
same,"H2O2 levels, dose dependence",[2]; increasing amounts of compound,dose-dependent increase
same,increase in cellular H2O2 levels,[2]; top dose tested,2-4 fold
same,on target toxicity,[3],much less on target toxicity than EGFR inhibitors
same,ablation of SGLT1 transporter,SGLT1,ablated along with EGFR
same,anti-proliferative activity,[4],considerable anti-proliferative activity
same,ablation of xCT transporter,xCT,ablated along with EGFR
same,active tumor by gross pathology or histochemistry,"[5]; Day 155, end of experiment, treatment group not named, presumably combination",active tumor could not be detected
same,anti-tumor effect of Compound A combined with radiation (tumor volume),"[5]; mt-EGFR PC9, 75 mg/kg five times a week for 3 weeks oral, 2 Gy/day five times a week for 3 weeks",unexpectedly exhibited efficacy; also recorded: strongly increased
same,anti-tumor effect of Compound A combined with radiation (tumor volume),[6],unexpectedly exhibited efficacy; also recorded: strongly increased
